Experimental data: US4657865A, “Pullulanase-like enzyme, method for preparation thereof, and method for saccharification of starch therewith” (Agency of Industrial Science & Technology, priority 1985, dated 1987)

Experiments:
pullulanase-like enzyme = test: Inhibition of the pullulanase activity by metal salts; format: biochemical, Bacillus subtilis; conditions: inhibitor concentration 1×10^-3 M
Experimental: (6) Inhibitor: This enzyme undergoes not less than 90% of inhibition by each of HgCl2 and AgNO3 used in a concentration of 1×10^-3 M and about 70% of inhibition by ZnSO4 used in the same concentration.
(10) Procedure for determination of activity: This enzyme is added in a suitable amount to 0.5 ml of a 1% pullulan solution (pH 7.0) obtained by dissolving pullulan in 0.1M phosphate buffer. The mixture is made up to a total volume of 1 ml with water and incubated at 40° C. The amount of this enzyme which is required in producing reducing power equivalent to 1μ mole of glucose after one minute standing under the aforementioned conditions is defined as one unit.

[1] = system: Bacillus subtilis (FERM BP-672) parent strain; test: Growth on culture medium containing Tunicamycin, parent strain; format: cell-based; conditions: culture medium containing Tunicamycin 25-100 μg/ml
Text: (§1) The aforementioned pullulanase-like enzyme is produced by a bacterium isolated from soil and identified to be Bacillus subtilis (FERM BP-672). […] It has been designated as Bacillus subtilis TU strain, deposited with Fermentation Research Institute, Agency of Industrial Science & Technology on Oct. 13, 1984 under FERM 7893, and also transferred to the International Deposition based on the Budapest Treaty on Dec. 20, 1984 and designated FERM BP-684.
(§2) A strain of Bacillus subtilis (FERM BP-672) was suspended in distilled water and irradiated with the ultraviolet light (15 W) from its source at a distance of about 30 cm for 5 minutes. Part of the irradiated suspension was placed in a culture medium containing 75 μg of Tunicamycin per ml (containing 1% of polypepton, 1% of soluble starch, 0.3% of K2 HPO4, and 0.1% of MgSO4.7H2 O) and aerobically cultured therein at 30° C. for three days. The grown microorganism was sprayed on a plate culture medium with the same culture medium containing agar and incubated at 30° C. The colonies which grew were preserved on a slant medium of the same composition. In the Tunicamycin-resistant mutants so produced, there was obtained in high frequency a strain of enhanced activity to produce the pullulanase-like enzyme. Bacillus subtilis TU strain (FERM BP-684) was thus obtained.

[2] = system: Bacillus subtilis TU strain; test: Growth on culture medium containing Tunicamycin, TU strain; format: cell-based; conditions: culture medium containing Tunicamycin 25-100 μg/ml
Text: as §1, §2

Row | Compound | inhibition (pullulanase-like enzyme) | growth of the parent strain [1] | growth of the TU strain [2]
1 | O=[N+]([O-])[O-].[Ag+] [AgNO3] | not less than 90% |  | 
2 | O=S(=O)([O-])[O-].[Zn+2] [ZnSO4] | about 70% |  | 
3 | Tunicamycin |  | fails to show any growth | grows fairly well
4 | [Cl][Hg][Cl] [HgCl2] | not less than 90% |  | 
